Laboratory results taken from paper PMC10141604, “Small-Molecule Inhibition of Androgen Receptor Dimerization as a Strategy against Prostate Cancer” (ACS Central Science, 2023).
Values belong to the compound of their own block, whether it stands above or below them.

Experiments:
[1] = target: wild type androgen receptor ligand-binding domain (AR LBD) (human); test: cross-linking + other: SAXS; chemical cross-linking coupled with mass spectrometry (CXMS) of purified AR LBD; ensemble refinement against the cross-link restraints; dimer to monomer ratio fitted; with and without M17-B15
MR = target: T1, MR (Homo sapiens, UniProt P08235); test: Luciferase reporter assay for MR (HEK293T cells); type: cell-based; conditions: 0.4–10 μM, 5 nM aldosterone
T1 construct: host or cells: HEK293T
T1 sequence (P08235 1-984): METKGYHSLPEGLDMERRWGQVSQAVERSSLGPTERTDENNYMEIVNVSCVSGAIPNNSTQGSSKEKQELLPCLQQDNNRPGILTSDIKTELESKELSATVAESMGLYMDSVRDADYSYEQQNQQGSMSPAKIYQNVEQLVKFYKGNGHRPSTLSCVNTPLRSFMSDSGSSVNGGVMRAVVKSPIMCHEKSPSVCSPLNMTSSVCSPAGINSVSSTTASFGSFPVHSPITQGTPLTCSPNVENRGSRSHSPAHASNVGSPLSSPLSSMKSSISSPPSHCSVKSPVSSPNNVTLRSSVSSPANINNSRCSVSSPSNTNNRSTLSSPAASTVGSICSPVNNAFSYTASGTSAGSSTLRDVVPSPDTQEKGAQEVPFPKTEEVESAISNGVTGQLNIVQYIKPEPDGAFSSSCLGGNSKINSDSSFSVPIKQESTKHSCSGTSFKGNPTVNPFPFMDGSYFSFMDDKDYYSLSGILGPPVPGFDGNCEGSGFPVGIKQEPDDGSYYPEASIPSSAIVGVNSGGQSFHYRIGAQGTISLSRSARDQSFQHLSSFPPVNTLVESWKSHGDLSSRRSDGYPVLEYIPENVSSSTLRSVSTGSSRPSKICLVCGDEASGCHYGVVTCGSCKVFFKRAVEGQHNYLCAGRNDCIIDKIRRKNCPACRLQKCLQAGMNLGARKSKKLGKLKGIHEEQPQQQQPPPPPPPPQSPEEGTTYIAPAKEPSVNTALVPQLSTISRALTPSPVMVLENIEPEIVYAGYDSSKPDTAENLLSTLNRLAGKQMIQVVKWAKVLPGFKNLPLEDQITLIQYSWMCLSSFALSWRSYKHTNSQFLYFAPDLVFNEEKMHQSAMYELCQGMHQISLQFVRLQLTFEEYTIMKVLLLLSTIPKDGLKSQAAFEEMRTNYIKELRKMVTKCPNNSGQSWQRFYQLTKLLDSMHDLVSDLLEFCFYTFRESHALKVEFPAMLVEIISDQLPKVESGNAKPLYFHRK
Procedure: (§1) Luciferase Reporter Assays for PR, GR, and MR
(§2) PC3, HeLa, and HEK293T cells were cultured using 5% CSS RPMI-1640, 5% CSS RPMI-1640 and 10% FBS DMEM media in 96-well plates for 24 h, respectively. For PR induction, PC3 (1 × 10^4 cells/well) were transfected with 50 ng pcDNA3-PRB (#89130, Addgene), 24 ng pGL4.36[luc2P MMTV Hygro] (Promega) and 5 ng Renilla using HG-TransGeneTM transfection reagent (#TG-10012, Genomeditech) for 4 h. For GR induction, Hela (1 × 10^4 cells/well) were transfected with 71 ng pCMV -GR11 (#89105, Addgene), 24 ng pGL4.36[luc2P MMTV Hygro] (Promega) and 5 ng Renilla using lip3000 transfection reagent (#L3000075, Thermofisher) for 24 h. For MR induction, HEK293T (1 × 10^4 cells/well) were transfected with 71 ng pCMV-MR gifted by Liu et al. 28, 24 ng of pGL4.36[luc2P MMTV Hygro] (Promega) and 5 ng Renilla using lip3000 transfec tion reagent for 24 h. For the antagonistic models, 10 nM /well progesterone for PC3 cells , 1 nM/well dexamethasone for HeLa, and 5 nM/well aldosterone for HEK293T cells were added to stimulate the cells. Meanwhile, each cell line was treated with a series concentration of compounds (0.4, 2, and 10 μM). For the agonistic models, the cells were directly treated with the compounds without any hormones. Endogenous hormones progesterone, dexamethasone, and aldosterone were considered as agonists for PR, GR, and MR, respectively. The luciferase activities were assessed using the Dual-Glo Luciferase system (#E1910, Promega). […]

GR = target: T2, GR (Homo sapiens, UniProt P04150); test: Luciferase reporter assay for GR (HeLa cells); type: cell-based; conditions: 0.4 μM, 1 nM dexamethasone
T2 construct: host or cells: HeLa
T2 sequence (P04150 1-777): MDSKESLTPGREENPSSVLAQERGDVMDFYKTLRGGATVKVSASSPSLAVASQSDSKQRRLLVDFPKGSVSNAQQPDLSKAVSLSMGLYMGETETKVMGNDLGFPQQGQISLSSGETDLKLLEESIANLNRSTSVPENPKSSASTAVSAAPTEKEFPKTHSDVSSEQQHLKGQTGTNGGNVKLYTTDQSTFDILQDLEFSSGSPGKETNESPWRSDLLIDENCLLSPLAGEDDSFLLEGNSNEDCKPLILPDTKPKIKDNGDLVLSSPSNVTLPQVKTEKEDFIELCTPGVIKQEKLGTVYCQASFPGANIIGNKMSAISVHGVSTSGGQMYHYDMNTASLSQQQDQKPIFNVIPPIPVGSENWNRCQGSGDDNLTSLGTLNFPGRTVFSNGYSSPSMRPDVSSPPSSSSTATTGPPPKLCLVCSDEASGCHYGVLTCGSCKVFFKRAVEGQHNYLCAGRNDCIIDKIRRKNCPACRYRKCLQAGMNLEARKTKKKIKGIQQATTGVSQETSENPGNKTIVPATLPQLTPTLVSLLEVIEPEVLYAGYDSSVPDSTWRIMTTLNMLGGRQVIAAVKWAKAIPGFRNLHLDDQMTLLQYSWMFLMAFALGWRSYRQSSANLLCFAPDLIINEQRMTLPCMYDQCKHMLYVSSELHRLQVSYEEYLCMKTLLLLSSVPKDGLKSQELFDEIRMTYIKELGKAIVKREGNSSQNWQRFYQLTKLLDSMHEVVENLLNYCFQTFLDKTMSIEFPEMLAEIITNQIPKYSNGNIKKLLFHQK
Procedure: calculating volume (V= 0.5 × L × W2). Finally, the mice were sacrificed and the tumors were harvested for hematoxylin and eosin (H&E) staining.
as §1
Addgene), 24 ng pGL4.36[luc2P MMTV Hygro] (Promega) and 5 ng Renilla using HG- […]
Addgene), 24 ng pGL4.36[luc2P MMTV Hygro] (Promega) and 5 ng Renilla using lip3000 transfection reagent (#L3000075, Thermofisher) for 24 h. For MR induction, HEK293T (1 × 10^4 cells/well) were transfected with 71 ng pCMV-MR gifted by Liu et al. 28, 24 ng of pGL4.36[luc2P MMTV Hygro] (Promega) and 5 ng Renilla using lip3000 transfec tion reagent for 24 h. For the antagonistic models, 10 nM /well progesterone for PC3 cells , 1 nM/well dexamethasone for HeLa, and 5 nM/well aldosterone for HEK293T cells were added to stimulate the cells. Meanwhile, each cell line was treated […]
For the agonistic models, the cells were directly treated with the compounds without any hormones. […]
hormones progesterone, dexamethasone, and aldosterone were considered as agonists for PR, GR, and MR, respectively. The luciferase activities were assessed using the Dual-Glo Luciferase system (#E1910, Promega).
Cell Cycle and Apoptosis for LNCaP cells
LNCaP were cultured in 6-well plate with 5× 10^5 cells/well, after incubated at 37 °C for […]
Cell cycle were determined after 48 h incubation by Cell Cycle Staining Kit (#CCS012, MULTI SCIENCES) using […]

PR = target: T3, PR (Homo sapiens, UniProt P06401); test: Luciferase reporter assay for PR (PC3 cells); type: cell-based; conditions: 0.4 μM, 10 nM progesterone
T3 construct: host or cells: PC3
T3 sequence (P06401 1-933): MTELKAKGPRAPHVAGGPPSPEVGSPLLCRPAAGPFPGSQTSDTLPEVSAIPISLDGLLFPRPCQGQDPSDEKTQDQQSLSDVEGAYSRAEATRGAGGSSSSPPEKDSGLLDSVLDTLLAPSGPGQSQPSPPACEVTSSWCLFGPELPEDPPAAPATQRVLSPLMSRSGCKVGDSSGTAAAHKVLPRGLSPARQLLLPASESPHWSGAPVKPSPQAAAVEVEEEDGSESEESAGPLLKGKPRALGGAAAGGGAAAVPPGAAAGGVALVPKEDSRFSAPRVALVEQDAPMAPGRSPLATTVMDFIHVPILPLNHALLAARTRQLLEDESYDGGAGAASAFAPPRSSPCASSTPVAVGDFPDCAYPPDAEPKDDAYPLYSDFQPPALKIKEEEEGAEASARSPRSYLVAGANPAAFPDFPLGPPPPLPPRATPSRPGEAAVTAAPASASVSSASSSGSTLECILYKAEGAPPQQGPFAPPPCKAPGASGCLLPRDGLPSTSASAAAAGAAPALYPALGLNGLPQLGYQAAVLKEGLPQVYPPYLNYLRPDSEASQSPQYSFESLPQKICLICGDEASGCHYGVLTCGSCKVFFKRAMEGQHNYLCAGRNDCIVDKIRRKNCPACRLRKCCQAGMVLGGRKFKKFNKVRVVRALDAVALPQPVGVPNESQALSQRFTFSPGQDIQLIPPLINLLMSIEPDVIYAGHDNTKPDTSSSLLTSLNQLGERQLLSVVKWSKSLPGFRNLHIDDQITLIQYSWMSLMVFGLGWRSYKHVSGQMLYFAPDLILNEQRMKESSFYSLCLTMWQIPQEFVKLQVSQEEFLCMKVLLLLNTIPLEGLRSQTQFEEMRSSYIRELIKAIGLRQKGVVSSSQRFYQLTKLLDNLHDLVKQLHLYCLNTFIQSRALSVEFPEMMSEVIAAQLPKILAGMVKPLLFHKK
Procedure: as §1, §2

proportion of the dimer (with M17-B15) [1]: 15%
proportion of the dimer (without M17-B15) [1]: 20%
Compound: wild type androgen receptor ligand-binding domain (AR LBD) (domain or fragment)

MR antagonistic activity (MR): potent
Compound: CC(=O)S[C@@H]1CC2=CC(=O)CC[C@]2(C)[C@H]2CC[C@@]3(C)[C@@H](CC[C@@]34CCC(=O)O4)[C@H]12 [abbolactone]

Compound: CC#C[C@]1(O)CC[C@H]2[C@@H]3CCC4=CC(=O)CCC4=C3[C@@H](c3ccc(N(C)C)cc3)C[C@@]21C [mifepristone]
GR antagonistic activity (GR): > 90%
PR antagonistic activity (PR): > 90%
